Measurements reported in ChEMBL document CHEMBL1141759, “Steroids from the Antarctic octocoral Anthomastus bathyproctus” (2005).

Experiments:
Type in all cases: functional
[1] = tested on: A549; experiment: Cytotoxicity against human A549 cells by SRB assay
[2] = tested on: HT-29; experiment: Cytotoxicity against human HT-29 cells by SRB assay
[3] = tested on: MDA-MB-231; experiment: Cytotoxicity against human MDA-MB-231 cells by SRB assay

| SMILES | GI50 [1] [µM] | GI50 [2] [µM] | GI50 [3] [µM] |
| --- | --- | --- | --- |
| C=C(CC[C@](C)(O)[C@H]1CC[C@H]2[C@@H]3CCC4=CC(=O)C=C[C@]4(C)[C@H]3CC[C@@]21C)C(C)C | 23.4 |  |  |
| COC(=O)C(C)/C=C/[C@@H](C)[C@H]1CC[C@H]2[C@@H]3CCC4=CC(=O)C=C[C@]4(C)[C@H]3CC[C@]12C (stereo partly drawn) | 21.4 | 20.2 | 22.4 |
| COC(=O)/C(C)=C/CC[C@@H](C)[C@H]1CC[C@H]2[C@@H]3CCC4=CC(=O)C=C[C@]4(C)[C@H]3CC[C@]12C | 16.5 | 15.3 | 21.2 |
| COC(=O)/C(C)=C/C[C@@H](OC(C)=O)[C@@H](C)[C@H]1CC[C@H]2[C@@H]3CCC4=CC(=O)C=C[C@]4(C)[C@H]3CC[C@]12C |  |  | 18.4 |
